Laboratory results reported in patent US20130112197A1, “OPERATING METHOD FOR AN AEROSOL DELIVERY DEVICE AND AEROSOL DELIVERY DEVICE” (PARI Pharma GmbH, priority 2010, published 2013).

Test: clinical trial: nasal and paranasal aerosol deposition by gamma camera imaging
Format: in vivo, human
Excerpt: The method of the clinical trial was: Sinus air ventilation, nasal and paranasal aerosol deposition as well as nasal clearance of aerosols delivered by different pulsating airflows, such as a combined mode in comparison to intermittent mode. This was studied in 12 healthy volunteers using gamma camera imaging with 81 mKr gas and 99 mTc-DTPA aerosol. Masking techniques were used to visualize and quantify nasal and sinus aerosol deposition and retention.

SMILES: O=C([O-])CN(CCN(CC(=O)[O-])CC(=O)[O-])CCN(CC(=O)[O-])CC(=O)[O-].[99Tc+4] [99 mTc-DTPA]
- total sinus deposition in % of the deposited activity (12 healthy volunteers, maxillary and sphenoid sinuses, pulsating airflows): up to 24%
- total sinus deposition in % of the deposited activity (combined mode, proband 1, post FESS volunteer): 14%
- total sinus deposition in % of the deposited activity (combined mode, proband 2, normal volunteer): 6%
- total sinus deposition in % of the deposited activity (intermittent mode, proband 1, post FESS volunteer): 24%
- total sinus deposition in % of the deposited activity (intermittent mode, proband 2, normal volunteer): 0%
